According to US20260364184A1, “COMPOUND BASED ON OXOISOINDOLINYL-SUBSTITUTED TETRAHYDROPYRIMIDINE-DIONE AND USE THEREOF” (GLUETACS THERAPEUTICS (SHANGHAI) CO., LTD., priority 2023, published 2026):

What was measured:
[1] = target: T1, EGFR (Homo sapiens, UniProt P00533); assay: Western blot degradation of EGFR; format: cell-based; conditions: H1975 Cell; 24 hours
T1 construct: L858R/T790M in cis, heterozygous with wild type), Western blot
Experimental: Conventional Western blot assay was performed to evaluate the effects of the compounds of the present disclosure on the expression of target proteins in cells.
(1) Cell Seeding and Protein Harvesting: The selected cells were processed according to the cell seeding procedure and protein harvesting procedure in Table II-2.
(2) To the collected supernatant, 5×SDS sample loading buffer was added, followed by denaturation at 95 °C for 5 minutes. The denatured samples were then separated by SDS-PAGE electrophoresis on a polyacrylamide gel. Proteins were transferred to a nitrocellulose membrane (0.45 μm NC membrane), blocked with blocking buffer at room temperature for 1 hour, and subjected to antibody incubation and development procedures according to the antibody manufacturer's instructions (Cell Signaling Technology).
Half-Maximal Degradation Concentration value (the drug concentration required for degrading proteins by 50%, abbreviated as DC50) reads method: comparing the grayscale values of Western blot bands from drug-treated samples with those from blank DMSO-treated controls, and identifying the drug concentration range at which the grayscale value is half that of the DMSO-treated control bands.
DC50 values can be calculated using ImageJ software to measure grayscale values of Western blot bands from drug-treated samples. The concentration-response curve is fitted to estimate the drug concentration corresponding to half the grayscale value.
Target protein remaining (%) refers to the percentage of target protein remaining in cells after treatment with protein degrader compounds.
Calculation method for target protein remaining (%): Use ImageJ software to measure grayscale values of Western blot bands from drug (protein degrader)-treated samples. The grayscale value of drug-treated bands is divided by that of internal control protein bands, and the resulting quotient is normalized to obtain the relative percentage of remaining target protein after protein degrader treatment.
Target protein degradation rate (%)=1−target protein remaining (%).

[2] = target: T2, human Cereblon WT GST-tagged protein (CRBN) (Homo sapiens, UniProt Q96SW2); assay: CRBN binding by HTRF (Cereblon binding kit); conditions: for inhibition at 0.5 µM: read-out: Inhibition Rate at 0.5 μM (%); for inhibition at 2 µM: read-out: Inhibition Rate at 2 μM (%)
T2 construct: purchased CISBIO 64BDCRBNPEH
Summary of the method: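 GST-tagged human Cereblon WT was incubated 3 h at room temperature with compound, thalidomide-Re tracer and Eu anti-GST antibody. Final compound concentrations were 10 to 0.00064 µM (7 points) or 2 and 0.5 µM. Inhibition rate was calculated from HTRF 665/620 nm ratios versus solvent and blank controls.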

T2 sequence (Q96SW2 whole entry): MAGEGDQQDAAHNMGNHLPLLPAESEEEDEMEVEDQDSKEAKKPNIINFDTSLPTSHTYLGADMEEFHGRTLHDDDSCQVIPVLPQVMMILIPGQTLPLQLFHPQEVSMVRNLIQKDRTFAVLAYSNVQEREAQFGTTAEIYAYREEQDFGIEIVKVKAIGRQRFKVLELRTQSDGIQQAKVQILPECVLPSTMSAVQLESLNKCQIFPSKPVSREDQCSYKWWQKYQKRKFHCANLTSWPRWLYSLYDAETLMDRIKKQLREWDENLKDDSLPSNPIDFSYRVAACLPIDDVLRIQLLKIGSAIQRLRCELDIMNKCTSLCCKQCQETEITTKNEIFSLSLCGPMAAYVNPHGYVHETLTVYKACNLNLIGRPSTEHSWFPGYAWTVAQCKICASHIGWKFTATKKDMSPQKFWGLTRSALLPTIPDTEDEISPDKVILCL
T1 sequence (P00533 25-1210): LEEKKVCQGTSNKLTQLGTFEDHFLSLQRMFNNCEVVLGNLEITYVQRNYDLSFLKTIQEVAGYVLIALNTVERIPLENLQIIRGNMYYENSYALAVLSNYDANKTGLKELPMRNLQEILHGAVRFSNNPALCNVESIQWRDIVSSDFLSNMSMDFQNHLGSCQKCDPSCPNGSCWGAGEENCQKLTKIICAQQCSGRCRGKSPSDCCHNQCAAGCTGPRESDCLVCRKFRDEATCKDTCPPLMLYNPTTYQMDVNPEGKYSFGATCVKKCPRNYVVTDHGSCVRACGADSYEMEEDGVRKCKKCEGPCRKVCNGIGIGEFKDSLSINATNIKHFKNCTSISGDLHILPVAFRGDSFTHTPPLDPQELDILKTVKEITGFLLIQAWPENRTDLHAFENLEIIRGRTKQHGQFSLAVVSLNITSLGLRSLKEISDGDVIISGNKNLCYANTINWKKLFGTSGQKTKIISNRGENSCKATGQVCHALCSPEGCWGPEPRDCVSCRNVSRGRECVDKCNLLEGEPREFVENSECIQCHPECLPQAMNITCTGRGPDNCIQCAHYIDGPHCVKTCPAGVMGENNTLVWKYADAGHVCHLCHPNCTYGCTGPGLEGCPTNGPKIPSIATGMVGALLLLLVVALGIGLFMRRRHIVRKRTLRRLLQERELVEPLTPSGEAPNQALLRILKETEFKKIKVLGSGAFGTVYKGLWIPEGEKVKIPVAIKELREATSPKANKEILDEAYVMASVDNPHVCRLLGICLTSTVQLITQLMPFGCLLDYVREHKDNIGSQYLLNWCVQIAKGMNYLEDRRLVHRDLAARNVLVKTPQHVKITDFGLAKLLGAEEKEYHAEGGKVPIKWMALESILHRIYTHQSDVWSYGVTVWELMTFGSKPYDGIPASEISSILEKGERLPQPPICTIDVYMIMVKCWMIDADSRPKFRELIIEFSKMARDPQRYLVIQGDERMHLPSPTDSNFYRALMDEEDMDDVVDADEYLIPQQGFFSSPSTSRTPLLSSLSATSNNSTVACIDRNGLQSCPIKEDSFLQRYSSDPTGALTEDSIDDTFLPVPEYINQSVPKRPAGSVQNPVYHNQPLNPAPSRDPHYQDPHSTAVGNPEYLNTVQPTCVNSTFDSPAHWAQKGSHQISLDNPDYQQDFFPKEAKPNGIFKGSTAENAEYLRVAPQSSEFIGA
T1 sequence (Q96SW2 whole entry partner): as the sequence (Q96SW2 whole entry) above

Degradation of substrate protein EGFR (substrate protein remaining %) [1] | inhibition at 0.5 µM [2] | inhibition at 2 µM [2] | Structure (SMILES)
A (0%≤substrate protein remaining %≤80%) | – | – | COC1CCN(c2nccc(Nc3cc4c(cn3)c(N3CCN(CC5CCN(c6cccc7c6C(=O)N(N6CCC(=O)NC6=O)C7=O)CC5)CC3)nn4C(C)C)n2)CC1 [GT-06035, 2-(2,4-dioxotetrahydropyrimidin-1(2H)-yl)-4-(4-((4-(1-isopropyl-6-((2-(4-methoxypiperidin-1-yl)pyrimidin-4-yl)amino)-1H-pyrazolo[4,3-c]pyridin-3-yl)piperazin-1-yl)methyl)piperidin-1-yl)isoindoline-1,3-dione]
A (0%≤substrate protein remaining %≤80%) | – | – | O=C1CCN(N2Cc3cc(CN4CCN(C5CCN(c6ccc(Nc7ncc8nc(Nc9ccccc9)n(C9CCCC9)c8n7)cc6)CC5)CC4)ccc3C2=O)C(=O)N1 [GT-05914, 1-(5-((4-(1-(4-((9-cyclopentyl-8-(phenylamino)-9H-purin-2-yl)amino)phenyl)piperidin-4-yl)piperazin-1-yl)methyl)-1-oxoisoindolin-2-yl)dihydropyrimidine-2,4 (1H,3H)-dione]
A (0%≤substrate protein remaining %≤80%) | – | – | CC(C)n1nc(N2CCC(N(C)Cc3ccc4c(c3)CN(N3CCC(=O)NC3=O)C4=O)CC2)c2cnc(Nc3ccnc(-c4cnn(S(=O)(=O)C5CC5)c4)n3)cc21 [GT-06019, 1-(5-(((1-(6-((2-(1-(cyclopropylsulfonyl)-1H-pyrazol-4-yl)pyrimidin-4-yl)amino)-1-isopropyl-1H-pyrazolo[4,3-c]pyridin-3-yl)piperidin-4-yl)(methyl)amino)methyl)-1-oxoisoindolin-2-yl)dihydropyrimidine-2,4 (1H,3H)-dione]
A (0%≤substrate protein remaining %≤80%) | 10 to 20% | 53 to 60% | CN(Cc1ccc2c(c1)CN(N1CCC(=O)NC1=O)C2=O)C1CCN(c2ccc(Nc3ncc4nc(Nc5ccccc5)n(C5CCCC5)c4n3)cc2)CC1 [GT-05842, 1-(5-(((1-(4-((9-cyclopentyl-8-(phenylamino)-9H-purin-2-yl)amino)phenyl)piperidin-4-yl)(methyl)amino)methyl)-1-oxoisoindolin-2-yl)dihydropyrimidine-2,4 (1H,3H)-dione]

Further lines, the compound ahead of its results:

Structure (SMILES) | Degradation of substrate protein EGFR (substrate protein remaining %) [1] | inhibition at 0.5 µM [2] | inhibition at 2 µM [2]
COc1cc(N2CCC(N3CCN(Cc4ccc5c(c4)CN(N4CCC(=O)NC4=O)C5=O)CC3)CC2)c(C)cc1Nc1ncc(Br)c(Nc2ccc3nccnc3c2P(C)(C)=O)n1 [GT-05996, 1-(5-((4-(1-(4-((5-bromo-4-((5-(dimethylphosphoryl)quinoxalin-6-yl)amino)pyrimidin-2-yl)amino)-5-methoxy-2-methylphenyl)piperidin-4-yl)piperazin-1-yl)methyl)-1-oxoisoindolin-2-yl)dihydropyrimidine-2,4 (1H,3H)-dione] | A (0%≤substrate protein remaining %≤80%) | – | –
O=C1CCN(N2C(=O)c3ccc(N4CCC(CN5CCN(C6CCN(c7ccc(Nc8ncc9nc(Nc%10ccccc%10)n(C%10CCCC%10)c9n8)cc7)CC6)CC5)CC4)cc3C2=O)C(=O)N1 [GT-05955, 5-(4-((4-(1-(4-((9-cyclopentyl-8-(phenylamino)-9H-purin-2-yl)amino)phenyl)piperidin-4-yl)piperazin-1-yl)methyl)piperidin-1-yl)-2-(2,4-dioxotetrahydropyrimidin-1(2H)-yl)isoindoline-1,3-dione] | A (0%≤substrate protein remaining %≤80%) | – | –
COc1cc(N2CCN(Cc3ccc4c(c3)CN(N3CCC(=O)NC3=O)C4=O)CC2)c(C)cc1Nc1ncc(Br)c(Nc2ccc3nccnc3c2P(C)(C)=O)n1 [GT-05946, 1-(5-((4-(4-((5-bromo-4-((5-(dimethylphosphoryl)quinoxalin-6-yl)amino)pyrimidin-2-yl)amino)-5-methoxy-2-methylphenyl)piperazin-1-yl)methyl)-1-oxoisoindolin-2-yl)dihydropyrimidine-2,4 (1H,3H)-dione] | A (0%≤substrate protein remaining %≤80%) | – | –
COc1cc(N2CCC(N3CCN(Cc4ccc5c(c4)C(=O)N(N4CCC(=O)NC4=O)C5=O)CC3)CC2)c(C)cc1Nc1ncc(Br)c(Nc2ccc3nccnc3c2P(C)(C)=O)n1 [GT-06154, 5-((4-(1-(4-((5-bromo-4-((5-(dimethylphosphoryl)quinoxalin-6-yl)amino)pyrimidin-2-yl)amino)-5-methoxy-2-methylphenyl)piperidin-4-yl)piperazin-1-yl)methyl)-2-(2,4-dioxotetrahydropyrimidin-1(2H)-yl)isoindoline-1,3-dione] | A (0%≤substrate protein remaining %≤80%) | – | –
COC1CCN(c2nccc(Nc3cc4c(cn3)c(N3CCC(N(C)CC5CCN(c6cccc7c6C(=O)N(N6CCC(=O)NC6=O)C7=O)CC5)CC3)nn4C(C)C)n2)CC1 [GT-06119, 2-(2,4-dioxotetrahydropyrimidin-1(2H)-yl)-4-(4-(((1-(1-isopropyl-6-((2-(4-methoxypiperidin-1-yl)pyrimidin-4-yl)amino)-1H-pyrazolo[4,3-c]pyridin-3-yl)piperidin-4-yl)(methyl)amino)methyl)piperidin-1-yl)isoindoline-1,3-dione] | A (0%≤substrate protein remaining %≤80%) | 10 to 20% | 53 to 60%
COc1cc(N2CCC(N3CCN(CC4CCN(c5cccc6c5C(=O)N(N5CCC(=O)NC5=O)C6=O)CC4)CC3)CC2)c(C)cc1Nc1ncc(Br)c(Nc2ccc3nccnc3c2P(C)(C)=O)n1 [GT-05998, 4-(4-((4-(1-(4-((5-bromo-4-((5-(dimethylphosphoryl)quinoxalin-6-yl)amino)pyrimidin-2-yl)amino)-5-methoxy-2-methylphenyl)piperidin-4-yl)piperazin-1-yl)methyl)piperidin-1-yl)-2-(2,4-dioxotetrahydropyrimidin-1(2H)-yl)isoindoline-1,3-dione] | A (0%≤substrate protein remaining %≤80%) | – | –
O=C1CCN(N2Cc3cc(CN4CCN(c5ccc(Nc6ncc7nc(Nc8ccccc8)n(C8CCCC8)c7n6)cc5)CC4)ccc3C2=O)C(=O)N1 [GT-05836, 1-(5-((4-(4-((9-cyclopentyl-8-(phenylamino)-9H-purin-2-yl)amino)phenyl)piperazin-1-yl)methyl)-1-oxoisoindolin-2-yl)dihydropyrimidine-2,4 (1H,3H)-dione] | A (0%≤substrate protein remaining %≤80%) | – | –
CC(C)n1nc(N2CCC(N3CCN(Cc4ccc5c(c4)CN(N4CCC(=O)NC4=O)C5=O)CC3)CC2)c2cnc(Nc3ccnc(-c4cnn(S(=O)(=O)C5CC5)c4)n3)cc21 [GT-06077, 1-(5-((4-(1-(6-((2-(1-(cyclopropylsulfonyl)-1H-pyrazol-4-yl)pyrimidin-4-yl)amino)-1-isopropyl-1H-pyrazolo[4,3-c]pyridin-3-yl)piperidin-4-yl)piperazin-1-yl)methyl)-1-oxoisoindolin-2-yl)dihydropyrimidine-2,4 (1H,3H)-dione] | A (0%≤substrate protein remaining %≤80%) | – | –
COc1cc(N2CCC(N3CCN(CC4CCN(c5ccc6c(c5)C(=O)N(N5CCC(=O)NC5=O)C6=O)CC4)CC3)CC2)c(C)cc1Nc1ncc(Br)c(Nc2ccc3nccnc3c2P(C)(C)=O)n1 [GT-05997, 5-(4-((4-(1-(4-((5-bromo-4-((5-(dimethylphosphoryl)quinoxalin-6-yl)amino)pyrimidin-2-yl)amino)-5-methoxy-2-methylphenyl)piperidin-4-yl)piperazin-1-yl)methyl)piperidin-1-yl)-2-(2,4-dioxotetrahydropyrimidin-1(2H)-yl)isoindoline-1,3-dione] | A (0%≤substrate protein remaining %≤80%) | – | –
